According to article PMC4376724, “Differential Phenotypic and Functional Profiles of TcCA-2 -Specific Cytotoxic CD8^+ T Cells in the Asymptomatic versus Cardiac Phase in Chagasic Patients” (PLoS ONE, 2015):

Columns and labels:
[1] = tested on: PBMC from HLA-A*02:01 Chagas disease patients and healthy donors; assay: Cytokine secretion test (Bio-Plex multiplex immunoassay) in PBMC supernatants; format: cell-based, human; details: 1 μM peptide, 30 h; for IFNγ / IL6 / TNFα: non-peptide control subtracted
Protocol: (§1) For the screening of the recognition of TcCA-2 epitopes by Chagas disease patients, 10 HLA-A*02:01 adult patients in the asymptomatic phase of the disease (IND) were enrolled. For cytotoxicity, functional activity determinations and phenotypic characterization another group of 19 HLA-A*02:01 adults Chagas disease patients and 9 healthy donors were analyzed. These patients were at the chronic stage of the disease and were considered to be at the asymptomatic phase (IND, n = 8) if there was no evidence of having cardiac or gastrointestinal disorders. Chronic Chagas cardiomyopathy patients (CCC, n = 11) were stratified into G1 to G3 stages following Kuschnir classification according to clinical criteria and radiological, electrocardiographic and echocardiography analyses. The number of patients was the one recommended by the Hospital Ethical Committee. […] The patients were enrolled in both studies (functional and phenotypic characterization, IND n = 6 and CCC n = 7) when the available number of purified PBMC (limited by the cellular number isolated from each subject) was enough for both analyses. Another four CCC patients had to be enrolled to perform the phenotypic analysis in order to reach statistical significance.
(§2) Cytokine secretion (IL-4, IL-10, IL-6, IFN-γ, TNF-α) was determined in the supernatants of PBMC from Chagas disease patients and healthy donors, after in vitro stimulation with 1 μM of each peptide for 30 h at 37°C in RPMI supplemented with 10% iFBS as explained before. The secretion profile was determined by using a bead-based multiplex immunoassay system (Bio-Plex, Bio-Rad), following the manufacturer's instructions. The response was considered positive if an increase in the secretion of cytokines was at least three folds higher than the secretion by un-stimulated cells (basal secretion level) and at least, 4 pg/mL for IL-4, 2 pg/mL for IL-10, 15 pg/mL for IL-6 and 5 pg/mL for IFN-γ and TNF-α. The positive control consisted of 50 ng/mL Phorbol 12 myristate 13-acetate (PMA) and 500 ng/mL ionomycin (Sigma). Cytokine levels were quantified in each sample by using the Bio-Plex Manager software 4.1 (Bio-Rad).
Functional analysis of the epitope-specific CD8^+ T cells was carried out by the determination of the secretion profile of IFN-γ, TNF-α, IL-4, IL10 and IL-6 cytokines. […] CD8^+ T cells from 2 out of 11 patients responded to stimulation with peptide TcCA-2_273-281 by secreting IL-6. […] There was no secretion of IL-4 and IL-10 in PBMC after stimulation with any one of the four TcCA-2 peptides (data not shown). IFN-γ, TNF-α and IL6 cytokines secretion levels were higher in patients at the asymptomatic phase of the disease than in Chagas patients with associated cardiomyopathy.

[2] = tested on: PBMCs from asymptomatic HLA-A*02:01 Chagas disease patients; assay: HLA-A*02:01 restriction assay: peptide-pulsed K562-A2 cells as APC, IFN-γ secretion by patient PBMC; format: cell-based, human; details: range among patients with a positive response; K562-A2 pulsed with 1 mM peptide 1 h, 30 h co-culture; K562 level subtracted
Protocol: TAP-deficient T2 cells were used for the HLA-A*02:01 binding assays and the K562-A2 cells for the HLA-A*02:01 restriction assay. The cells were cultured in complete RPMI medium supplemented with 10% of inactivated Fetal Calf Serum (iFCS), 2 mM glutamine, and 100 U/ml penicillin. K562-A2 cells, expressing the HLA-A*02:01 molecule were cultured in the presence of […] of G-418, as previously described. The T2 and K562-A2 cells were kindly provided by Dr. Pedro Romero (University of Lausanne) and by Dr Peter Ponsaerts (University of Antwerp, with the permission of Dr. Cedrik Britten from Johanes Gutenberg-University Mainz), respectively.
as §1
as §2, with “(Bio-Rad). […]” for “(Bio-Rad).”

## AAAGDKLSL [TcCA-2_273-281]
[1]; PBMC of Chagas patients, same positivity criteria
  Patients whose cells responded by secreting IL-6: 2 out of 11
[1]; PBMC of patient CCC I 456
  IFNγ: 0 pg/mL
  IL6: 0 pg/mL
  TNFα: 0 pg/mL
[1]; PBMC of patient CCC I 770
  IFNγ: 0 pg/mL
  IL6: 22 pg/mL
  TNFα: 4 pg/mL
[1]; PBMC of patient CCC I 861
  IFNγ: 2 pg/mL
  IL6: -4 pg/mL
  TNFα: -2 pg/mL
[1]; PBMC of patient CCC I 884
  IFNγ: 0 pg/mL
  IL6: 0 pg/mL
  TNFα: 0 pg/mL
[1]; PBMC of patient CCC III 509
  IFNγ: 0 pg/mL
  IL6: -4 pg/mL
  TNFα: -5 pg/mL
[1]; PBMC of patient IND 365
  IFNγ: 1 pg/mL
  IL6: 43 pg/mL
  TNFα: -6 pg/mL
[1]; PBMC of patient IND 388
  IFNγ: 2 pg/mL
  IL6: 36 pg/mL
  TNFα: 7 pg/mL
[1]; PBMC of patient IND 510
  IFNγ: 0 pg/mL
  IL6: 1 pg/mL
  TNFα: -1 pg/mL
[1]; PBMC of patient IND 535
  IFNγ: 0 pg/mL
  IL6: -5 pg/mL
  TNFα: -1 pg/mL
[1]; PBMC of patient IND 571
  IFNγ: 0 pg/mL
  IL6: 0 pg/mL
  TNFα: 0 pg/mL
[1]; PBMC of patient IND 917
  IFNγ: 7 pg/mL
  IL6: 18 pg/mL
  TNFα: 11 pg/mL
[1]; PBMC of subject HD 001
  IFNγ: 6 pg/mL
  IL6: 1 pg/mL
  TNFα: -8 pg/mL
[1]; PBMC of subject HD 004
  IFNγ: 0 pg/mL
  IL6: -9 pg/mL
  TNFα: 0 pg/mL
[1]; PBMC of subject HD 005
  IFNγ: -19 pg/mL
  IL6: -183 pg/mL
  TNFα: -11 pg/mL
[1]; PBMC of subject HD 006
  IFNγ: 6 pg/mL
  IL6: 1 pg/mL
  TNFα: 2 pg/mL
[1]; PBMC of subject HD 008
  IFNγ: -1 pg/mL
  IL6: 9 pg/mL
  TNFα: 0 pg/mL
[1]; PBMC of subject HD 011
  IFNγ: 0 pg/mL
  IL6: -11 pg/mL
  TNFα: -8 pg/mL
[1]; PBMC of subject HD 340
  IFNγ: 0 pg/mL
  IL6: 9 pg/mL
  TNFα: 4 pg/mL
[1]; PBMC of subject HD 664
  IFNγ: -3 pg/mL
  IL6: 0 pg/mL
  TNFα: 0 pg/mL
[2]
  INF-γ secretion range: 8.6 pg/mL

## ALQVTNHRYL [TcCA-2_657-666]
[1]; PBMC of patient CCC I 770
  IFNγ: 0 pg/mL
  IL6: 1 pg/mL
  TNFα: -6 pg/mL
[1]; PBMC of patient CCC I 861
  IFNγ: 0 pg/mL
  IL6: -4 pg/mL
  TNFα: -2 pg/mL
[1]; PBMC of patient CCC I 884
  IFNγ: 0 pg/mL
  IL6: 0 pg/mL
  TNFα: 0 pg/mL
[1]; PBMC of patient CCC III 509
  IFNγ: 0 pg/mL
  IL6: -4 pg/mL
  TNFα: -5 pg/mL
[1]; PBMC of patient IND 365
  IFNγ: 2 pg/mL
  IL6: 10 pg/mL
  TNFα: 14 pg/mL
[1]; PBMC of patient IND 388
  IFNγ: 2 pg/mL
  IL6: 2 pg/mL
  TNFα: -5 pg/mL
[1]; PBMC of patient IND 510
  IFNγ: 0 pg/mL
  IL6: -3 pg/mL
  TNFα: 1 pg/mL
[1]; PBMC of patient IND 535
  IFNγ: 0 pg/mL
  IL6: -5 pg/mL
  TNFα: -2 pg/mL
[1]; PBMC of patient IND 571
  IFNγ: 1 pg/mL
  IL6: 0 pg/mL
  TNFα: 0 pg/mL
[1]; PBMC of patient IND 917
  IFNγ: -1 pg/mL
  IL6: -17 pg/mL
  TNFα: -17 pg/mL
[1]; PBMC of subject HD 001
  IFNγ: -2 pg/mL
  IL6: 1 pg/mL
  TNFα: -6 pg/mL
[1]; PBMC of subject HD 004
  IFNγ: 4 pg/mL
  IL6: -12 pg/mL
  TNFα: -1 pg/mL
[1]; PBMC of subject HD 005
  IFNγ: 0 pg/mL
  IL6: -58 pg/mL
  TNFα: -4 pg/mL
[1]; PBMC of subject HD 006
  IFNγ: 3 pg/mL
  IL6: -5 pg/mL
  TNFα: 1 pg/mL
[1]; PBMC of subject HD 008
  IFNγ: -3 pg/mL
  IL6: 3 pg/mL
  TNFα: -21 pg/mL
[1]; PBMC of subject HD 011
  IFNγ: 0 pg/mL
  IL6: -4 pg/mL
  TNFα: 0 pg/mL
[1]; PBMC of subject HD 017
  IFNγ: 0 pg/mL
  IL6: 0 pg/mL
  TNFα: 0 pg/mL
[1]; PBMC of subject HD 340
  IFNγ: 1 pg/mL
  IL6: 22 pg/mL
  TNFα: 8 pg/mL
[1]; PBMC of subject HD 664
  IFNγ: -3 pg/mL
  IL6: 0 pg/mL
  TNFα: 0 pg/mL
[2]
  INF-γ secretion range: 6.1 to 6.7 pg/mL
